Measurements as given in paper PMC6514686, “Tri-Cyclic Nucleobase Analogs and Their Ribosides as Substrates of Purine-Nucleoside Phosphorylases. II Guanine and Isoguanine Derivatives” (Molecules, 2019).
Substitutions are numbered along the chain they refer to. Read-outs that look alike come from different tables or passages of the source.

Experiments:
[1] = target: T1, E.coli PNP-wt (purine-nucleoside phosphorylase) (Escherichia coli, UniProt P0ABP8); assay: enzymatic ribosylation of nucleobase analogs by α-D-ribose-1-phosphate, E. coli PNP wild type; format: biochemical; conditions: for Vmax (relative): relative to Vmax of guanine ribosylation under the same conditions (=100), 40 mM HEPES, pH 7, error ~10%
T1 construct: made in house; host or cells: E. coli
T1 sequence (P0ABP8 2-239 limits assumed): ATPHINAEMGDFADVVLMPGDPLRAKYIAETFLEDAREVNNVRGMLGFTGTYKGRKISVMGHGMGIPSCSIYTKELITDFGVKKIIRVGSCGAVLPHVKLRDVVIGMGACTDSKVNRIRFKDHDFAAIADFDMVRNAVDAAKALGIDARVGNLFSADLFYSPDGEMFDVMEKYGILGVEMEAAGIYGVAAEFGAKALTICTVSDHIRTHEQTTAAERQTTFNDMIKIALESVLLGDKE
Procedure: (§1) […] 0.5 mM R1P as a ribose source. On a larger scale, reactions were run in Eppendorf tubes, volume 2–3 mL, using either R1P or 7-methylguanosine as ribose sources. Phosphorolysis reactions were run in 50 mM phosphate buffer, pH 7.0 or 6.5. Data were analyzed by standard methods (see Supplementary Materials).
(§2) Recombinant E. coli and calf spleen PNPs as well as their mutated forms were expressed in E. coli and purified according to the procedures described earlier.

[2] = target: T2, calf PNP-wt (calf spleen purine-nucleoside phosphorylase) (Bos taurus, UniProt P55859); assay: enzymatic ribosylation by α-D-ribose-1-phosphate, calf PNP wild type; format: biochemical; conditions: for Vmax (relative): relative to Vmax of guanine ribosylation under the same conditions (=100), 40 mM HEPES, pH 7, error ~10%
T2 construct: made in house; host or cells: E. coli
T2 sequence (P55859 1-289): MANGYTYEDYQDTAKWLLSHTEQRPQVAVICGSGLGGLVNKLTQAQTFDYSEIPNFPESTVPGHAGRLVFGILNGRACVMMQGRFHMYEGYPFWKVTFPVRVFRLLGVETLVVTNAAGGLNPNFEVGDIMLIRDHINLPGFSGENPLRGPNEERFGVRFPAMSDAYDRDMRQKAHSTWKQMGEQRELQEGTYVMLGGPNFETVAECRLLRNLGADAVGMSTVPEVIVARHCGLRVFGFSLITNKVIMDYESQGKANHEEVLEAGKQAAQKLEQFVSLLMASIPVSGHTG
Procedure: (§3) For kinetic analyses, enzymatic ribosylation reactions were carried out in 1 mL cuvettes (pathlength 4 mm) in ~50 mM HEPES buffer, pH 7.3, using ca. 0.5 mM R1P as a ribose source. On a larger scale, reactions were run in Eppendorf tubes, volume 2–3 mL, using either R1P or 7-methylguanosine as ribose sources. Phosphorolysis reactions were run in 50 mM phosphate buffer, pH 7.0 or 6.5. Data were analyzed by standard methods (see Supplementary Materials).
as §2

[3] = target: T3, E. coli PNP (Escherichia coli, UniProt P0ABP8); assay: inhibition of guanine ribosylation catalyzed by E. coli PNP; format: biochemical
T3 construct: made in house; host or cells: E. coli
Procedure: We conclude that inability of the enzyme to ribosylate (2) is not due to geometric hindrance, but rather should be ascribed to unfavorable energetic factors, in accordance with previous reports about the relative instability of the glycosidic bond in this compound [23].
(§4) N^2,3-etheno-O^6-methylguanine (3) effectively competes with guanine in the ribosylation process, acting as quasi inhibitor of the E. coli PNP, with estimated Kiapp value 7.5 ± 0.8 μM (competitive model; average of 3 determinations), in agreement with the Km value, estimated from kinetic data (see the previous paragraph).
as §3

[4] = target: T4, calf PNP (Bos taurus, UniProt P55859); assay: inhibition of guanine ribosylation catalyzed by calf PNP; format: biochemical; conditions: similar conditions as with E. coli PNP
T4 construct: made in house; host or cells: E. coli
T4 sequence (P55859 1-289): T2 sequence (P55859 1-289)
Procedure: as §4, §3

[5] = ionization constants (spectrophotometric titrations)
[6] = target: T4, calf PNP; assay: phosphorolysis of nucleosides in phosphate buffer by calf PNP; format: biochemical
Procedure: as §3

[7] = target: T3, E. coli PNP; assay: phosphorolysis of nucleosides in phosphate buffer by E. coli PNP; format: biochemical; conditions: for phosphorolysis (in words): 50 mM phosphate buffer, pH 6.5
Procedure: as §3

[8] = target: T3, E. coli PNP; parameters: method as in PMID 29376769; conditions: cited from earlier work
[9] = target: T4, calf PNP; parameters: method as in PMID 29376769; conditions: cited from earlier work
[10] = target: T5, E.coli PNP-mutantD204N (Escherichia coli, UniProt P0ABP8, D205N); assay: enzymatic ribosylation by α-D-ribose-1-phosphate, E. coli PNP D204N mutant; format: biochemical; conditions: for Vmax (relative): relative to Vmax of guanine ribosylation under the same conditions (=100), 40 mM HEPES, pH 7, error ~10%
T5 construct: made in house; host or cells: E. coli
Procedure: as §3, §2

[11] = target: T6, calf PNP-mutantN243D (Bos taurus, UniProt P55859, N243D); assay: enzymatic ribosylation by α-D-ribose-1-phosphate, calf PNP N243D mutant; format: biochemical
T6 construct: made in house; host or cells: E. coli
T6 sequence (P55859 1-289 N243D): T2 sequence (P55859 1-289) with N243D
Procedure: as §3, §2

[12] = substrate: O=c1c2[nH]cnc2nc2[nH]ccn12; assay: enzymatic ribosylation of nucleobase analogs by α-D-ribose-1-phosphate, E. coli PNP wild type; format: biochemical; conditions: other: ribosylation, 40 mM HEPES buffer, pH 7, α-D-ribose-1-phosphate, standard errors ~15%
Procedure: as §1, §2

[13] = aqueous, pKa ±0.1, lower (basic) value, protonation to the cation
[14] = aqueous, pKa ±0.1, upper (acidic) value, deprotonation to the monoanion
[15] = no reaction traces even with 10-fold higher enzyme concentrations
[16] = 40 mM HEPES buffer, pH 7, α-D-ribose-1-phosphate

T5 sequence (P0ABP8 2-239 D205N): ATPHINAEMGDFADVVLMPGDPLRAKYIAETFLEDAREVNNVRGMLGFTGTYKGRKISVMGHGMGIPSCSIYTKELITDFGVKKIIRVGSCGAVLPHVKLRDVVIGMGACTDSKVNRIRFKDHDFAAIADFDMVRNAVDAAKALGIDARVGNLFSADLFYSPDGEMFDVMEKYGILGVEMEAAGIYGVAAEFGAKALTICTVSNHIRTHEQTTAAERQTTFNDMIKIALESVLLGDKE

For `COc1nc2nccn2c2[nH]cnc12` [N^2,3-etheno-O^6-methylguanine], the “Vmax (relative)” value [1] was roughly 0.3, the “Vmax (relative)” value [2] was less than 0.1 and the Ki ([3]; competition with guanine in ribosylation, competitive model, average of 3 determinations, read-out: estimated Kiapp) was 7.5 ± 0.8 µM. For the same molecule, the “inhibition of guanine ribosylation (in words)” value [4] was “no such inhibition is observed”, the pKa [5, 13] was roughly 3.5 and the pKa [5, 14] was roughly 9.

In the case of `O=c1c2ncn([C@@H]3O[C@H](CO)[C@@H](O)[C@H]3O)c2nc2[nH]ccn12` [1,N^2-ethenoguanosine], the “phosphorolysis (in words)” value [6] is reported as “no marked phosphorolysis” and the pKa [5, 14] is reported as 8.8.

For “1,N^6-etheno-N7-β-D-ribosylisoguanosine [N7-riboside (6)]”, the “phosphorolysis (in words)” value [7] was “Even more rapid”.

With `O=c1[nH]c2c(ncn2[C@@H]2O[C@H](CO)[C@@H](O)[C@H]2O)c2nccn12` [N9-riboside (5), 1,N^6-etheno-N9-β-D-ribosylisoguanosine] the “phosphorolysis (in words)” value [7] was “fairly rapid”, the “phosphorolysis (in words)” value [6] was “not phosphorolysed” and the pKa [5, 13] was 2.4. It also gave a pKa [5, 14] of 7.1.

In the case of `OC[C@H]1O[C@@H](n2cnc3c2ncn2ccnc32)[C@H](O)[C@@H]1O` [1,N^6-ethenoadenosine], the “phosphorolysis (in words)” value [8] is listed as “rapidly phosphorolysed” and the “phosphorolysis (in words)” value [9] is listed as “resistant”.

In the case of “1,N^6-etheno-N^6-β-D-ribosylisoguanosine [N^6-riboside (7)]”, the “phosphorolysis (in words)” value [7] is reported as “much more rapidly” and the “phosphorolysis (in words)” value [6] is reported as “only slowly deribosylated”.

For `O=c1nc2[nH]ccn2c2nc[nH]c12` [N^2,3-ethenoguanine], the “substrate activity in ribosylation (in words)” value [1, 15] was “not a substrate”, the “Vmax (relative)” value [1] was less than 0.1 and the “substrate activity in ribosylation (in words)” value [2, 15] was “not a substrate”. The “Vmax (relative)” value [2] was less than 0.1, the Ki ([3]; guanine as substrate of the ribosylation reaction, possibly competitive inhibition, read-out: estimated Ki) was 38 µM and the pKa [5, 13] was roughly 2.5. It also gave a pKa [5, 14] of 8.8.

In the case of 1,N^6-ethenoisoguanine, the Km ([1]; 50 mM HEPS buffer, pH 7.3, R1P 0.5 mM, 25 °C (Figure S3), read-out: Km from double-reciprocal plots) is reported as 98 µM, the “Vmax (relative)” value [1] is reported as roughly 24 and the Km ([1]; ribosylation, 40 mM HEPES buffer, pH 7, α-D-ribose-1-phosphate, standard errors ~15%, read-out: Km) is reported as 98 µM. For the same molecule, the “Vmax (relative)” value [10] was greater than 5, the “Vmax (relative)” value [2] was 1.6 and the Km ([2]; ribosylation, 40 mM HEPES buffer, pH 7, α-D-ribose-1-phosphate, standard errors ~15%) was roughly 160 µM. For the same molecule, the “Approximate Product Ratio: N9: N7-riboside: N^6-riboside” value (shortened to “Approximate Product Ratio: N9”) [11, 16] was “predominantly N^6”, the “Vmax (relative)” value ([11]; relative to Vmax of guanine ribosylation under the same conditions (=100), 40 mM HEPES, pH 7, error ~10%) was roughly 1 and the “pKa ±0.1, lower (basic) value” ([5]; aqueous, protonation to the cation) was 3.5. For the same molecule, the “fitted pKa, lower (basic) value” ([5]; spectrophotometric titration, pH 2.9 to 5.5, ±0.2 (Figure S2)) was 3.5, the “fitted pKa, upper (acidic) value” ([5]; spectrophotometric titration, pH 6.25 to 11.5, ±0.2 (Figure S2)) was 8.1 and the “pH of probable second deprotonation” value ([5]; spectrophotometric titrations) was ~ 13.

With `Nc1nc(=O)[nH]c2c1ncn2[C@@H]1O[C@H](CO)[C@@H](O)[C@H]1O` [isoguanosine, reference compound] the “Vmax of phosphorolysis, fold lower than that for guanosine” value ([7]; data not shown) was “ca. 40 fold” and the “phosphorolysis (in words)” value [6] was “did not see any such reaction”.

For `O=c1c2nc[nH]c2[nH]c2nccn12` [1,N^2-ethenoguanine, 5,9-dihydro-9-oximidazo{1,2-a}purine], the “Approximate Product Ratio: N9” value [1, 16] was “predominantly N9”, the “Vmax (relative)” value [1] was 18 and the “share of the one main product in the reaction mixture (HPLC)” value ([1]; ribosylation, product identical to the chemically generated nucleoside) was greater than 95%. For the same molecule, the “Approximate Product Ratio: N9” value [10, 16] was “predominantly N9”, the “Vmax (relative)” value [10] was greater than 15 and the “Approximate Product Ratio: N9” value [2, 16] was “predominantly N9”. For the same molecule, the “ribosylation rate, fold slower than the ribosylation of guanine” value ([2]; pH 7.3, HEPES buffer, 25 °C) was “ca. 100 fold”, the “Vmax (relative)” value [2] was less than 0.5 and the “ribosylation rate, fold slower than the ribosylation of guanine” value ([11]; pH 7.3, HEPES buffer, 25 °C) was “ca. 100 fold”. For the same molecule, the pKa [5, 13] was roughly 2 and the pKa [5, 14] was roughly 9.5.

B1: E.coli PNP-wt (purine-nucleoside phosphorylase) (Escherichia coli K-12) (protein)
chain: T1 sequence (P0ABP8 2-239 limits assumed)
notes: made in house; host or cells: E. coli
With B1 the Km [12] was 48 µM.
